In patent US10676471B2, “Cycloalkyl-linked diheterocycle derivatives” (Pfizer Inc., priority 2014, dated 2020) one finds IC50 data, which are given here for 21 compounds.

Bounds are passed on as bounds.

In general, IC50 refers to the point on the concentration scale where inhibition reaches its midpoint. Lower therefore signals higher potency.

This test concerns BT20 Cell. In words: Cancer Cell Lysate Total L-Glutamate Assay. Type of test: cell-based. The note with it: Homo sapiens, BT-20, 2 h, total L-glutamate in cell lysate, BT20 cells, 2 hour incubation with test compound. As to the method: Cancer Cell Lysate Total L-Glutamate Assay
Cancer cell lines (BT20, HCT116, SKOV3, HCC70, SUM149, MDA-MB-231, etc.) were plated in 96 well plates and were used for the total L-glutamate assay when the monolayer was ca. 80% confluent. The media was changed and fresh media containing L-glutamine was added to the 96 well plates, just before incubation of the cells with test compound. The test compound was diluted in 100% DMSO using a two-fold or three-fold serial dilution. Small volumes of the dilutions of test compound were added to the 96 well plates so the final DMSO concentration was 0.5% v/v in the cell culture medium. The cells were incubated at 37° C., 5% CO2, and 95% air for 2 hours. Following the 2 hour incubation, the cells were washed with water 2 times. After the last water wash, 100 μL of 50 mM Tris-HCl pH 7.4 and 0.01% Tween-20 was added to each well and the plate was frozen at −80° C. The 96 well plate was frozen and thawed a total of 3 times and then sonicated for 5 min at 4° C. in a bath sonicator. Following sonication, the 96 well plate was centrifuged for 5 min at 1000 rpm and 10 μL of the supernatant was transferred to a 384 well assay plate.
Total L-glutamate (L-glutamic acid) in the cell lysis supernatant was detected using glutamate oxidase, horseradish peroxidase and Amplex Red reagent (10-acetyl-3,7-dihydroxy phenoxazine, Invitrogen # A22177). In this assay, L-glutamate was oxidized by glutamate oxidase to produce alpha-ketoglutarate (2-oxopentane dioic acid), NH3 and H202. The H2O2 (hydrogen peroxide) was used by horseradish peroxidase (HRP) to oxidize the Amplex Red Reagent to resorufin which is a fluorescent molecule. When resorufin is excited with light with a wavelength 530-560 nm, it emits light at approximately 585 nm. For detection of total L-glutamate in 10 μL of lysate, 15 μL of an enzyme mixture was added to each well of the 384 well assay plate. The enzyme mixture consisted of 50 mM Tris-HCl pH 7.4, 0.01% Tween-20, 50 μM Amplex Red reagent (final concentration), 0.04 U/mL L-glutamate oxidase (final concentration), and 0.125 U/mL HRP (final concentration). The 384 well assay plate was incubated at room temperature for 5 min and then the fluorescence intensity of each well was measured at 585 nm using a 530-560 nm excitation wavelength in a plate based fluorimeter such as an LJL Analyst or a Tecan Infinite plate reader. Standard curves were constructed for this assay using dilutions of a L-glutamate standard. IC50 were calculated by plotting the relative fluorescent units vs log of the inhibitor concentration and fitting the data to the four parameter logistic equation.
Reference: Chapman J. and Zhou M. (1999) Microplate-based fluorometric methods for the enzymatic determination of I-glutamate: application in measuring I-glutamate in food samples. Analytica Chim Acta 402:47-52.

`CC(C)C(=O)Nc1nnc(C2CC3(CC(c4nnc(NC(=O)Cc5ccn(C)n5)s4)C3)C2)s1` (racemic) [Example 136, 2-methyl-N-{5-[6-(5-{[(1-methyl-1H-pyrazol-3-yl)acetyl]amino}-1,3,4-thiadiazol-2-yl)spiro[3.3]hept-2-yl]-1,3,4-thiadiazol-2-yl}propanamide] showed an IC50 of 1.9 nM.
With `CCC(=O)Nc1nnc([C@H]2CC[C@@H](Cc3ccc(NC(=O)Cc4ccccn4)nn3)C2)s1` [Example 119, N-{5-[(1S,3R)-3-({6-[(pyridin-2-ylacetyl)amino]pyridazin-3-yl}methyl)cyclopentyl]-1,3,4-thiadiazol-2-yl}propanamide], the midpoint of inhibition, the IC50, lay at 0.2 nM.
Compound `O=C(Cc1ccccn1)Nc1nnc(C[C@@H]2CC[C@@H](c3nnc(Nc4ccccn4)s3)C2)s1` (single isomer, unassigned) [Example 85, 2-(pyridin-2-yl)-N-[5-({3-[5-(trans)(pyridin-2-ylamino)-1,3,4-thiadiazol-2-yl]cyclopentyl}methyl)-1,3,4-thiadiazol-2-yl]acetamide] came in with an IC50 of 8.2 nM.
Take `CC(=O)Nc1nnc(C[C@H]2CC[C@@H](c3nnc(NC(C)=O)s3)C2)s1` (single isomer, unassigned) [Example 7]: the IC50 was determined as 3360 nM.
On to `CC(C)C(=O)Nc1ccc(C[C@H]2CC[C@@H](c3nnc(NC(=O)Cc4ccccn4)s3)C2)nn1` (single isomer, unassigned) [Example 78, 2-methyl-N-(6-{[(cis)-3-{5-[(pyridin-2-ylacetyl)amino]-1,3,4-thiadiazol-2-yl}cyclopentyl]methyl}pyridazin-3-yl)propanamide], for which it took 3 nM to reach half-maximal inhibition (IC50).
For the compound `CC(=O)Nc1nnc(C2CCC(Cc3nnc(NC(=O)Cc4ccccn4)s3)C2)s1` (racemic) [Example 18, (rac)-N-[5-({(cis)-3-[5-(acetylamino)-1,3,4-thiadiazol-2-yl]cyclopentyl}methyl)-1,3,4-thiadiazol-2-yl]-2-(pyridin-2-yl)acetamide], the IC50 came out at 79.7 nM.
On to `O=C(Cc1ccccc1)Nc1ccc(C[C@@H]2CC[C@H](c3nnc(NC(=O)Cc4ccccn4)s3)C2)nn1` (single isomer, unassigned) [Example 82, 2-phenyl-N-(6-{[(cis)-3-{5-[(pyridin-2-ylacetyl)amino]-1,3,4-thiadiazol-2-yl}cyclopentyl]methyl}pyridazin-3-yl)acetamide], for which the midpoint of inhibition, the IC50, lay at 0.1 nM.
For the compound `CC(=O)Nc1nnc([C@H]2CC[C@@H](Cc3nnc(NC(=O)Cc4ccccc4)s3)C2)s1` (single isomer, unassigned) [Example 14], the IC50 was determined as 3.1 nM.
As to `CC(=O)Nc1nnc(C2CC[C@H](Cc3nnc(NC(=O)c4ccccc4)s3)C2)s1` (single isomer, unassigned) [Example 12, N-[5-({(cis)-3-[5-(acetylamino)-1,3,4-thiadiazol-2-yl]cyclopentyl}methyl)-1,3,4-thiadiazol-2-yl]benzamide], the IC50 is > 50000 nM.
`CC(=O)Nc1nnc(C[C@H]2C[C@@H](c3nnc(NC(=O)Cc4ccc(C)cn4)s3)C2)s1` (single isomer, unassigned) [Example 107, N-[5-(cis-3-{[5-(acetylamino)-1,3,4-thiadiazol-2-yl]methyl}cyclobutyl)-1,3,4-thiadiazol-2-yl]-2-(5-methylpyridin-2-yl)acetamide]: the concentration for half-maximal inhibition (IC50) was 10.1 nM.
Next, `Cc1ccc(CC(=O)Nc2nnc([C@H]3C[C@@H](Cc4nnc(NC(=O)Cc5ccccn5)s4)C3)s2)nc1` (single isomer, unassigned) [Example 112, 2-(5-methylpyridin-2-yl)-N-{5-[cis-3-({5-[(pyridin-2-ylacetyl)amino]-1,3,4-thiadiazol-2-yl}methyl)cyclobutyl]-1,3,4-thiadiazol-2-yl}acetamide]: 0.2 nM; `O=C(Cc1ccccn1)Nc1nnc(C[C@@H]2CC[C@H](c3nnc(Nc4ccccn4)s3)C2)s1` (single isomer, unassigned) [Example 133, 2-(pyridin-2-yl)-N-[5-({(cis)-3-[5-(pyridin-2-ylamino)-1,3,4-thiadiazol-2-yl]cyclopentyl}methyl)-1,3,4-thiadiazol-2-yl]acetamide]: 1.7 nM; `O=C(Cc1ccccn1)Nc1ccc([C@H]2C[C@@H](Cc3nnc(NC(=O)Cc4ccccn4)s3)C2)nn1` (single isomer, unassigned) [Example 124, 2-(pyridin-2-yl)-N-{5-[(cis-3-{6-[(pyridin-2-ylacetyl)amino]pyridazin-3-yl}cyclobutyl)methyl]-1,3,4-thiadiazol-2-yl}acetamide]: 4.7 nM.
Take `CCNc1nnc(C2CCC(Cc3nnc(NC(=O)Cc4ccccn4)s3)C2)s1` (racemic) [Example 24, (rac)-N-[5-({(cis)-3-[5-(ethylamino)-1,3,4-thiadiazol-2-yl]cyclopentyl}methyl)-1,3,4-thiadiazol-2-yl]-2-(pyridin-2-yl)acetamide]: the IC50 amounted to 78.9 nM.
As for `CC(=O)Nc1nnc(C2CCC(Cc3nnc(NC(=O)Cc4cncnc4)s3)C2)s1` (racemic) [Example 49, (rac)-N-[(cis)-5-({3-[5-(acetylamino)-1,3,4-thiadiazol-2-yl]cyclopentyl}methyl)-1,3,4-thiadiazol-2-yl]-2-(pyrimidin-5-yl)acetamide], half-maximal inhibition (IC50) was put at 789 nM.
As to `CC(C(=O)Nc1nnc(CC2CCC(c3nnc(NC(=O)C(C)c4cccnc4)s3)C2)s1)c1cccnc1` (racemic) [Example 30, (rac)-2-(pyridin-3-yl)-N-(5-{[(cis)-3-(5-{[2-(pyridin-3-yl)propanoyl]amino}-1,3,4-thiadiazol-2-yl)cyclopentyl]methyl}-1,3,4-thiadiazol-2-yl)propanamide], inhibition was half-maximal at 1.9 nM (IC50).
On to `O=C(Cc1ccccn1)Nc1nnc(CC2CCC(c3nnc(Nc4ncccn4)s3)C2)s1` (racemic) [Example 83, (rac)-2-(pyridin-2-yl)-N-[5-({(cis)-3-[5-(pyrimidin-2-ylamino)-1,3,4-thiadiazol-2-yl]cyclopentyl}methyl)-1,3,4-thiadiazol-2-yl]acetamide], for which the IC50 is 2.4 nM.
`CC(=O)Nc1nnc([C@H]2CC[C@@H](Cc3nnc(NC(=O)Cc4ccccn4)s3)C2)s1` (single isomer, unassigned) [Example 17, N-[5-({(cis)-3-[5-(acetylamino)-1,3,4-thiadiazol-2-yl]cyclopentyl}methyl)-1,3,4-thiadiazol-2-yl]-2-(pyridin-2-yl)acetamide] showed an IC50 of 12.2 nM.
`O=C(Cc1ccccn1)Nc1ccc(C[C@@H]2CC[C@H](c3nnc(NC4CC4)s3)C2)nn1` (single isomer, unassigned) [Example 110, N-[6-({(cis)-3-[5-(cyclopropylamino)-1,3,4-thiadiazol-2-yl]cyclopentyl}methyl)pyridazin-3-yl]-2-(pyridin-2-yl)acetamide] yielded an IC50 of 2.3 nM.
As for `O=C(Cc1ccccn1)Nc1ccc(CC2CCC(c3nnc(NC(=O)C[C@H]4CCCO4)s3)C2)nn1` (mixture of isomers) [Example 129, (rac)-2-(pyridin-2-yl)-N-(6-{[(cis)-3-(5-{[(2R)-tetrahydrofuran-2-ylacetyl]amino}-1,3,4-thiadiazol-2-yl)cyclopentyl]methyl}pyridazin-3-yl)acetamide], it took 2.2 nM to reach half-maximal inhibition (IC50).
Take `Nc1nnc(C[C@@H]2CC[C@H](c3nnc(N)s3)C2)s1` (single isomer, unassigned) [Example 40]: half-maximal inhibition (IC50) was put at 4580 nM.
